Data taken from patent US11793787B2, “Methods and compositions for enhancing anti-tumor immunity by targeting steroidogenesis” (The Broad Institute, Inc., priority 2019, dated 2023).
Several values for one entry are separate records, joined by “and”; a condition that tells them apart may be missing. Equal entries are not always repeated. Entries after “also recorded” stand apart in the source; their conditions may differ.

Legend:
MC38-Ova tumor explants = MC38-Ova tumor explants cultured with Metyrapone, corticosterone ELISA; type: cell-based, mouse; conditions: 24 hrs, Metyrapone 25 or 50 ng/ml
Protocol: (§1) In vivo and in vitro modulation of glucocorticoid synthesis. MC38-Ova^dim was implanted in wild type C57BL/6 mice and either Metyrapone (50 mg/kg; Fisher Scientific), Corticosterone (2.5 mg/kg) or vehicle control PBS (Gibco) was administered intra-tumorally on Day 5, 6, 7 and 9 post-tumor implantation. In some experiments, MC38-Ova^dim tumor explants or sorted lin^−CD45^+CD24^− cells were cultured in the presence or absence of Metyrapone (25 or 50 ng/ml) for 24 hrs. Supernatants were harvested and corticosterone measured by ELISA (Arbor Assays).

CD8+ TILs = test: Flow cytometry of CD8+ TILs from Metyrapone-treated tumor-bearing mice; type: in vivo, mouse; conditions: intra-tumoral Metyrapone, early stage of tumor progression
Protocol: as §1, with “Isolation of TILs. TILs were isolated by dissociating tumor tissue in the presence of collagenase D (2.5 mg/ml) for 20 minutes prior to centrifugation on a discontinuous Percoll gradient (GE Healthcare). Isolated cells were then used in various assays. Flow cytometry. […] Antigen specific […] […] In vivo” for “In vivo”, “or sorted lin^-CD45^+CD24^- cells were” for “or sorted lin^−CD45^+CD24^− cells were”

MC38-Ova colon carcinoma = test: Intra-tumoral Metyrapone in MC38-Ova tumor-bearing mice, tumor growth; type: in vivo, mouse; conditions: 50 mg/kg, Days 5, 6, 7 and 9
Description: Tumor cell lines used. MC38-Ova^dim was generously provided by Mark Smyth. B16F10 was purchased from ATCC. MC38 was generously provided by Carla Rothlin. MC38-Ova^dim-GFP was generated in Applicants lab as follows, HEK293T cells were transfected with pLenti PGK GFP Puro plasmid. The resulting Lentivirus was then used to infect Mc38Ova^dim cell line to generate a GFP expressing cell line. MC38-Ova^dim (0.5×10^6) or B16F10 (0.25×10^6) and MC38-Ova^dim-GFP (0.5×10^6) cells were implanted subcutaneously into the right flank of mice.
Tumor experiments. Tumor size was measured in two dimensions by caliper and is expressed as the product of two perpendicular diameters. In some experiments, mice were treated with anti-PD-1 (RMP1-14) ([…]) antibodies or control immunoglobulin (Rat IgG2a) i.p. on days 5, 8 and 11 post-tumor implantation. Mice were then monitored for tumor growth. […] Antibodies were administered bi-weekly for a total of 5 treatments (n=9-10).
as §1, with “In some experiments, MC38-Ova^dim tumor explants or sorted lin^−CD45^+CD24^− cells were cultured in the presence or absence of Metyrapone (25 or 50 ng/ml) for 24 hrs.” left out

[1] = tested on: Lin-CD45+CD24- monocyte/macrophages from MC38-Ova tumors; test: Tumor-associated monocyte/macrophages cultured with Metyrapone, corticosterone ELISA; type: cell-based, mouse; conditions: 24 hrs culture ex vivo
Protocol: as §1

CD8+ T cells [2] = test: RNA-Seq of naive CD8+ T cells cultured with Dex (GC), IL-27 or GC+IL-27 (Tables 1, 2A, 2B, 3, 5-8); type: cell-based, mouse
[3] = tested on: MC38-Ova dim colon carcinoma; test: Intra-tumoral corticosterone in LysMCre+ Cyp11a1fl/fl mice bearing MC38-Ova dim, tumor progression; type: in vivo, mouse; conditions: intra-tumoral corticosterone 2.5 mg/kg, Days 5, 6, 7 and 9
Protocol: Tumor experiments. Tumor size was measured in two dimensions by caliper and is expressed as the product of two perpendicular diameters. […] Mice were then monitored for tumor growth. […] In vivo and in vitro modulation of glucocorticoid synthesis. MC38-Ova^dim was implanted in wild type C57BL/6 mice and either Metyrapone (50 mg/kg; Fisher Scientific), Corticosterone (2.5 mg/kg) or vehicle control PBS (Gibco) was administered intra-tumorally on Day 5, 6, 7 and 9 post-tumor implantation.

CD8+ T cells [4] = test: Quantitative RT-PCR of Prdm1, Nfil3 and Tcf7 in GC, IL-27 or GC+IL-27 treated CD8+ T cells; type: cell-based, mouse; conditions: qPCR
Protocol: Cell culture and treatment with glucocorticoid.
Quantitative PCR. Total RNA was extracted using RNeasy columns (Qiagen) or PicoPure™ RNA Isolation Kit (Thermo Fischer). Reverse transcription of mRNA was performed in a thermal cycler (Bio-Rad) using iScript cDNA Synthesis Kit (Bio-Rad) or SuperScript™ VILO™ cDNA Synthesis Kit (Thermo Fischer). qPCR was performed in the Vii7 Real-Time PCR system (Applied Biosystems) using the primers for Taqman gene expression (Applied Biosystems). Data were normalized to the expression of Actb.

[5] = treated CD8+ T cells, three values per condition, listed as Dex
[6] = treated CD8+ T cells, three values per condition

What does the source list for CC(C)(C(=O)c1cccnc1)c1cccnc1 [Metyrapone]?
level of corticosterone in tumor explant supernatants (MC38-Ova tumor explants): reduced and less; functional properties of CD8+ TILs compared with loss of GR in CD8+ T cells (CD8+ TILs): resembled that of CD8^+ TILs from E8i-Cre^+ Nr3c1^fl/fl mice and LysM-Cre^+ Cyp11a1^fl/fl mice; functional properties of CD8+ TILs compared with loss of GR in CD8+ T cells (CD8+ TILs; listed as metyrapone): phenocopies CD8 GR cKO; tumor growth (MC38-Ova colon carcinoma): dramatic tumor growth inhibition; corticosterone production by tumor-associated monocyte/macrophages [1]: dramatically reduced; also recorded: significantly inhibited

C[C@@H]1C[C@H]2[C@@H]3CCC4=CC(=O)C=C[C@]4(C)[C@@]3(F)[C@@H](O)C[C@]2(C)[C@@]1(O)C(=O)CO [dexamethasone] was tested. Which “number of GC-induced genes overlapping with the T cell dysfunction signature” value (CD8+ T cells [2]; GC versus vehicle control, Table 8) did it give?
Its value is 463.

What about the 1124 expression levels (CD8+ T cells [2]; [5]) of the same molecule?
The 1124 expression levels was 156.6 and 224.35 and 191.

What about the CD28 expression levels (CD8+ T cells [2]; [5]) of the same molecule?
The CD28 expression levels was 31.98 and 33.89 and 35.83.

What about the Lilrb4 expression levels (CD8+ T cells [2]; [5]) of the same molecule?
The Lilrb4 expression levels was 179.28 and 174.41 and 160.09.

What about the Nupr1 expression levels (CD8+ T cells [2]; [5]) of the same molecule?
The Nupr1 expression levels was 11.81 and 14.26 and 21.7.

What about the Tcf7 expression levels (CD8+ T cells [2]; [5]) of the same molecule?
The Tcf7 expression levels was 9.54 and 8.42 and 8.72.

What about the Tgfb3 expression levels (CD8+ T cells [2]; [5]) of the same molecule?
The Tgfb3 expression levels was 8.53 and 5.51 and 5.9.

Which “control of tumor progression in LysMCre+ Cyp11a1fl/fl mice” value [3] does the source give for C[C@]12C[C@H](O)[C@H]3[C@@H](CCC4=CC(=O)CC[C@@]43C)[C@@H]1CC[C@@H]2C(=O)CO [corticosterone] here?
Its value is “abrogated”.

B1: IL-27: heterodimeric cytokine of the IL-12 family composed of EBI3 and IL-27p28 (protein, UniProt Q14213 21-229; Q8NEV9 29-243, looked up)
Interleukin-27 subunit beta: RKGPPAALTLPRVQCRASRYPIAVDCSWTLPPAPNSTSPVSFIATYRLGMAARGHSWPCLQQTPTSTSCTITDVQLFSMAPYVLNVTAVHPWGSSSSFVPFITEHIIKPDPPEGVRLSPLAERQLQVQWEPPGSWPFPEIFSLKYWIRYKRQGAARFHRVGPIEATSFILRAVRPRARYYVQVAAQDLTDYGELSDWSLPATATMSLGK
Interleukin-27 subunit alpha: FPRPPGRPQLSLQELRREFTVSLHLARKLLSEVRGQAHRFAESHLPGVNLYLLPLGEQLPDVSLTFQAWRRLSDPERLCFISTTLQPFHALLGGLGTQGRWTNMERMQLWAMRLDLRDLQRHLRFQVLAAGFNLPEEEEEEEEEEEEERKGLLPGALGSALQGPAQVSWPQLLSTYRLLHSLELVLSRAVRELLLLSKAGHSVWPLGFPTLSPQP
What does the source list for B1?
Tcf7 expression (CD8+ T cells [4]): dramatically reduced; CD28 expression levels (CD8+ T cells [2]; [6]): 48.93 and 37.2 and 39.84; Lilrb4 expression levels (CD8+ T cells [2]; [6]): 73.62 and 94.25 and 105.87; Nupr1 expression levels (CD8+ T cells [2]; [6]): 11.93 and 21.86 and 19.79; Tcf7 expression levels (CD8+ T cells [2]; [6]): 5.37 and 7.39 and 5.57
